# Assay: Study 202 treatment-emergent laboratory abnormalities (DAIDS grade)
# Assay type: in vivo, human
# Description: The 12th subject (Subject 42001) had 2 consecutive CPK elevations (Grade 3 followed by Grade 4) that returned to normal values while continuing treatment at a subsequent visit. None of the CPK elevations were associated with clinical symptoms; no subjects discontinued due to CPK elevations and there were no differences in AEs related to musculoskeletal disorders between the CVC and EFV arms.
# The number of subjects with graded treatment-emergent laboratory abnormalities in selected liver parameters of interest is shown in Table 34. No Grade 4 ALT or AST elevations were observed. Except for one Grade 3 AST elevation, all ALT and AST elevations were Grade 1 or Grade 2. […] All abnormalities in bilirubin were Grade 1 or Grade 2. […]
# [1] = All CVC (N = 115), EFV (N = 28)
# [2] = All CVC (N = 115), EFV (N = 28), through Week 48
# [3] = CVC 100 mg (N = 38), through Week 48
# [4] = CVC 100 mg (N = 58), through Week 48
# [5] = CVC 200 mg (N = 57), through Week 48
smiles,measurement,setting,value
"O=C1Nc2ccc(Cl)cc2[C@@](C#CC2CC2)(C(F)(F)F)O1 [EFV, efavirenz, reference compound]","ALT abnormality, worst Grade 1",[1],2 (7%) n (%)
same,"ALT abnormality, worst Grade 2",[1],0 n (%)
same,"ALT abnormality, worst Grade 3",[1],0 n (%)
same,"ALT abnormality, worst Grade 4",[1],0 n (%)
same,"AST abnormality, worst Grade 1",[1],3 (11%) n (%)
same,"AST abnormality, worst Grade 2",[1],0 n (%)
same,"AST abnormality, worst Grade 3",[1],0 n (%)
same,"AST abnormality, worst Grade 4",[1],0 n (%)
same,"Alanine aminotransferase (ALT) abnormality, any worst grade",[1],2 (7%) n (%)
same,"Aspartate aminotransferase (AST) abnormality, any worst grade",[1],3 (11%) n (%)
same,"Bilirubin abnormality, any worst grade",[1],1 (4%) n (%)
same,"Bilirubin abnormality, worst Grade 1",[1],1 (4%) n (%)
same,"Bilirubin abnormality, worst Grade 2",[1],0 n (%)
same,"Bilirubin abnormality, worst Grade 3",[1],0 n (%)
same,"Bilirubin abnormality, worst Grade 4",[1],0 n (%)
same,"AST increased, Grade 3",[2],0 n (%)
same,"AST increased, Grade 4",[2],0 n (%)
same,Any Grade 3 laboratory abnormality,[2],3 (11%) n (%)
same,Any Grade 3 or Grade 4 laboratory abnormality,[2],4 (14%) n (%)
same,Any Grade 4 laboratory abnormality,[2],1 (4%) n (%)
same,Aspartate aminotransferase (AST) increased (Grade 3 or 4),[2],0 n (%)
same,"CPK increased, Grade 3",[2],2 (7%) n (%)
same,"CPK increased, Grade 4",[2],0 n (%)
same,Creatine phosphokinase (CPK) increased (Grade 3 or 4),[2],2 (7%) n (%)
same,Fibrinogen decreased (Grade 3 or 4),[2],0 n (%)
same,"Fibrinogen decreased, Grade 3",[2],0 n (%)
same,"Fibrinogen decreased, Grade 4",[2],0 n (%)
same,Hemoglobin decreased (Grade 3 or 4),[2],0 n (%)
same,"Hemoglobin decreased, Grade 3",[2],0 n (%)
same,"Hemoglobin decreased, Grade 4",[2],0 n (%)
same,Neutrophils decreased (Grade 3 or 4),[2],1 (4%) n (%)
same,"Neutrophils decreased, Grade 3",[2],0 n (%)
same,"Neutrophils decreased, Grade 4",[2],1 (4%) n (%)
same,Phosphate decreased (Grade 3 or 4),[2],1 (4%) n (%)
same,"Phosphate decreased, Grade 3",[2],1 (4%) n (%)
same,"Phosphate decreased, Grade 4",[2],0 n (%)
same,Prothrombin time/international normalized ratio increased (Grade 3 or 4),[2],0 n (%)
same,"Prothrombin time/international normalized ratio increased, Grade 3",[2],0 n (%)
same,"Prothrombin time/international normalized ratio increased, Grade 4",[2],0 n (%)
same,"Any graded (Grade 1-4) laboratory abnormality, %",EFV,89%
same,"Worst Grade 1 laboratory abnormality, %",EFV,46%
same,"Worst Grade 2 laboratory abnormality, %",EFV,29%
same,"Worst Grade 3 laboratory abnormality, %",EFV,11%
same,"Worst Grade 4 laboratory abnormality, %",EFV,4%
"CCCCOCCOc1ccc(-c2ccc3c(c2)/C=C(/C(=O)Nc2ccc([S@@+]([O-])Cc4cncn4CCC)cc2)CCCN3CC(C)C)cc1 [CVC, (S)-8-[4-(2-Butoxyethoxy)phenyl]-1-isobutyl-N-(4-{[(1-propyl-1H-imidazol-5-yl)methyl]sulfinyl}phenyl)-1,2,3,4-tetrahydro-1-benzazocine-5-carboxamide]","Any graded (Grade 1-4) laboratory abnormality, %",All CVC,92%
same,"Worst Grade 1 laboratory abnormality, %",All CVC,32%
same,"Worst Grade 2 laboratory abnormality, %",All CVC,43%
same,"Worst Grade 3 laboratory abnormality, %",All CVC,11%
same,"Worst Grade 4 laboratory abnormality, %",All CVC,5%
same,"ALT abnormality, worst Grade 1",[1],10 (9%) n (%)
same,"ALT abnormality, worst Grade 2",[1],5 (4%) n (%)
same,"ALT abnormality, worst Grade 3",[1],0 n (%)
same,"ALT abnormality, worst Grade 4",[1],0 n (%)
same,"AST abnormality, worst Grade 1",[1],14 (12%) n (%)
same,"AST abnormality, worst Grade 2",[1],6 (5%) n (%)
same,"AST abnormality, worst Grade 3",[1],1 (< %) n (%)
same,"AST abnormality, worst Grade 4",[1],0 n (%)
same,"Alanine aminotransferase (ALT) abnormality, any worst grade",[1],15 (13%) n (%)
same,"Aspartate aminotransferase (AST) abnormality, any worst grade",[1],21 (18%) n (%)
same,"Bilirubin abnormality, any worst grade",[1],7 (6%) n (%)
same,"Bilirubin abnormality, worst Grade 1",[1],3 (3%) n (%)
same,"Bilirubin abnormality, worst Grade 2",[1],4 (3%) n (%)
same,"Bilirubin abnormality, worst Grade 3",[1],0 n (%)
same,"Bilirubin abnormality, worst Grade 4",[1],0 n (%)
same,"AST increased, Grade 3",[2],1 (<1%) n (%)
same,"AST increased, Grade 4",[2],0 n (%)
same,Any Grade 3 laboratory abnormality,[2],13 (11%) n (%)
same,Any Grade 3 or Grade 4 laboratory abnormality,[2],19 (17%) n (%)
same,Any Grade 4 laboratory abnormality,[2],6 (5%) n (%)
same,Aspartate aminotransferase (AST) increased (Grade 3 or 4),[2],1 (<1%) n (%)
same,"CPK increased, Grade 3",[2],8 (7%) n (%)
same,"CPK increased, Grade 4",[2],4 (3%) n (%)
same,Creatine phosphokinase (CPK) increased (Grade 3 or 4),[2],12 (10%) n (%)
same,Fibrinogen decreased (Grade 3 or 4),[2],2 (2%) n (%)
same,"Fibrinogen decreased, Grade 3",[2],2 (2%) n (%)
same,"Fibrinogen decreased, Grade 4",[2],0 n (%)
same,Hemoglobin decreased (Grade 3 or 4),[2],1 (<1%) n (%)
same,"Hemoglobin decreased, Grade 3",[2],0 n (%)
same,"Hemoglobin decreased, Grade 4",[2],1 (<1%) n (%)
same,Neutrophils decreased (Grade 3 or 4),[2],2 (2%) n (%)
same,"Neutrophils decreased, Grade 3",[2],2 (2%) n (%)
same,"Neutrophils decreased, Grade 4",[2],0 n (%)
same,Phosphate decreased (Grade 3 or 4),[2],4 (3%) n (%)
same,"Phosphate decreased, Grade 3",[2],4 (3%) n (%)
same,"Phosphate decreased, Grade 4",[2],0 n (%)
same,"Any graded (Grade 1-4) laboratory abnormality, %",CVC 100 mg,88%
same,"Worst Grade 1 laboratory abnormality, %",CVC 100 mg,36%
same,"Worst Grade 2 laboratory abnormality, %",CVC 100 mg,40%
same,"Worst Grade 3 laboratory abnormality, %",CVC 100 mg,7%
same,"Worst Grade 4 laboratory abnormality, %",CVC 100 mg,5%
same,"AST increased, Grade 4",[3],0 n (%)
same,Any Grade 3 or Grade 4 laboratory abnormality,[3],7 (12%) n (%)
same,Any Grade 4 laboratory abnormality,[3],3 (5%) n (%)
same,Aspartate aminotransferase (AST) increased (Grade 3 or 4),[3],1 (2%) n (%)
same,"CPK increased, Grade 4",[3],1 (2%) n (%)
same,Creatine phosphokinase (CPK) increased (Grade 3 or 4),[3],3 (5%) n (%)
same,Fibrinogen decreased (Grade 3 or 4),[3],0 n (%)
same,"Fibrinogen decreased, Grade 3",[3],0 n (%)
same,"Fibrinogen decreased, Grade 4",[3],0 n (%)
same,Hemoglobin decreased (Grade 3 or 4),[3],1 (2%) n (%)
same,"Hemoglobin decreased, Grade 3",[3],0 n (%)
same,"Hemoglobin decreased, Grade 4",[3],1 (2%) n (%)
same,Neutrophils decreased (Grade 3 or 4),[3],2 (3%) n (%)
same,"Neutrophils decreased, Grade 3",[3],2 (3%) n (%)
same,"Neutrophils decreased, Grade 4",[3],0 n (%)
same,Phosphate decreased (Grade 3 or 4),[3],2 (3%) n (%)
same,"Phosphate decreased, Grade 3",[3],2 (3%) n (%)
same,"Phosphate decreased, Grade 4",[3],0 n (%)
same,"ALT abnormality, worst Grade 1",CVC 100 mg (N = 58),4 (7%) n (%)
same,"ALT abnormality, worst Grade 2",CVC 100 mg (N = 58),3 (5%) n (%)
same,"ALT abnormality, worst Grade 3",CVC 100 mg (N = 58),0 n (%)
same,"ALT abnormality, worst Grade 4",CVC 100 mg (N = 58),0 n (%)
same,"AST abnormality, worst Grade 1",CVC 100 mg (N = 58),8 (14%) n (%)
same,"AST abnormality, worst Grade 2",CVC 100 mg (N = 58),2 (3%) n (%)
same,"AST abnormality, worst Grade 3",CVC 100 mg (N = 58),1 (2%) n (%)
same,"AST abnormality, worst Grade 4",CVC 100 mg (N = 58),0 n (%)
same,"Alanine aminotransferase (ALT) abnormality, any worst grade",CVC 100 mg (N = 58),7 (12%) n (%)
same,"Aspartate aminotransferase (AST) abnormality, any worst grade",CVC 100 mg (N = 58),11 (19%) n (%)
same,"Bilirubin abnormality, any worst grade",CVC 100 mg (N = 58),4 (7%) n (%)
same,"Bilirubin abnormality, worst Grade 1",CVC 100 mg (N = 58),1 (2%) n (%)
same,"Bilirubin abnormality, worst Grade 2",CVC 100 mg (N = 58),3 (5%) n (%)
same,"Bilirubin abnormality, worst Grade 3",CVC 100 mg (N = 58),0 n (%)
same,"Bilirubin abnormality, worst Grade 4",CVC 100 mg (N = 58),0 n (%)
same,"AST increased, Grade 3",[4],1 (2%) n (%)
same,Any Grade 3 laboratory abnormality,[4],4 (7%) n (%)
same,"CPK increased, Grade 3",[4],2 (3%) n (%)
same,"Any graded (Grade 1-4) laboratory abnormality, %",CVC 200 mg,96%
same,"Worst Grade 1 laboratory abnormality, %",CVC 200 mg,28%
same,"Worst Grade 2 laboratory abnormality, %",CVC 200 mg,47%
same,"Worst Grade 3 laboratory abnormality, %",CVC 200 mg,16%
same,"Worst Grade 4 laboratory abnormality, %",CVC 200 mg,5%
same,"ALT abnormality, worst Grade 1",CVC 200 mg (N = 57),6 (11%) n (%)
same,"ALT abnormality, worst Grade 2",CVC 200 mg (N = 57),2 (4%) n (%)
same,"ALT abnormality, worst Grade 3",CVC 200 mg (N = 57),0 n (%)
same,"ALT abnormality, worst Grade 4",CVC 200 mg (N = 57),0 n (%)
same,"AST abnormality, worst Grade 1",CVC 200 mg (N = 57),6 (11%) n (%)
same,"AST abnormality, worst Grade 2",CVC 200 mg (N = 57),4 (7%) n (%)
same,"AST abnormality, worst Grade 3",CVC 200 mg (N = 57),0 n (%)
same,"AST abnormality, worst Grade 4",CVC 200 mg (N = 57),0 n (%)
same,"Alanine aminotransferase (ALT) abnormality, any worst grade",CVC 200 mg (N = 57),8 (14%) n (%)
same,"Aspartate aminotransferase (AST) abnormality, any worst grade",CVC 200 mg (N = 57),10 (18%) n (%)
same,"Bilirubin abnormality, any worst grade",CVC 200 mg (N = 57),3 (5%) n (%)
same,"Bilirubin abnormality, worst Grade 1",CVC 200 mg (N = 57),2 (4%) n (%)
same,"Bilirubin abnormality, worst Grade 2",CVC 200 mg (N = 57),1 (2%) n (%)
same,"Bilirubin abnormality, worst Grade 3",CVC 200 mg (N = 57),0 n (%)
same,"Bilirubin abnormality, worst Grade 4",CVC 200 mg (N = 57),0 n (%)
same,"AST increased, Grade 3",[5],0 n (%)
same,"AST increased, Grade 4",[5],0 n (%)
same,Any Grade 3 laboratory abnormality,[5],9 (16%) n (%)
same,Any Grade 3 or Grade 4 laboratory abnormality,[5],12 (21%) n (%)
same,Any Grade 4 laboratory abnormality,[5],3 (5%) n (%)
same,Aspartate aminotransferase (AST) increased (Grade 3 or 4),[5],0 n (%)
same,"CPK increased, Grade 3",[5],6 (11%) n (%)
same,"CPK increased, Grade 4",[5],3 (5%) n (%)
same,Creatine phosphokinase (CPK) increased (Grade 3 or 4),[5],9 (16%) n (%)
same,Fibrinogen decreased (Grade 3 or 4),[5],2 (4%) n (%)
same,"Fibrinogen decreased, Grade 3",[5],2 (4%) n (%)
same,"Fibrinogen decreased, Grade 4",[5],0 n (%)
same,Hemoglobin decreased (Grade 3 or 4),[5],0 n (%)
same,"Hemoglobin decreased, Grade 3",[5],0 n (%)
same,"Hemoglobin decreased, Grade 4",[5],0 n (%)
same,Neutrophils decreased (Grade 3 or 4),[5],0 n (%)
same,"Neutrophils decreased, Grade 3",[5],0 n (%)
same,"Neutrophils decreased, Grade 4",[5],0 n (%)
same,Phosphate decreased (Grade 3 or 4),[5],2 (4%) n (%)
same,"Phosphate decreased, Grade 3",[5],2 (4%) n (%)
same,"Phosphate decreased, Grade 4",[5],0 n (%)

# Source: patent US20200368247A1, “CENICRIVIROC FOR THE TREATMENT OF FIBROSIS” (Tobira Therapeutics, Inc., priority 2014, published 2020)
